The experiment deals with HBV. The experiment is described as follows: HBV inhibition assay in HepAD38 cells (extracellular HBV DNA by direct qPCR). Type of experiment: cell-based, Hepatitis B virus. The note with it: 96 hours; for EC50: 8-point dose-response curve, read-out: HBV inh EC50; for Anti HBV Activity (conc μM): relative to non-treated reference. On the technique in general: In qPCR the cycle at which signal appears reflects the starting amount.

Where two headings read alike, the source gives them in different places. Some results are limits rather than exact numbers.

The EC50 is the concentration giving half of the maximal effect. With `Cc1cc(NC(=O)c2c3c(cn2C)S(=O)(=O)N[C@H]2CN(C(=O)c4ncoc4C)C[C@H]2CO3)ccc1F` [Example E113, (3aR,10aR)—N-(4-fluoro-3-methylphenyl)-7-methyl-2-(5-methyloxazole-4-carbonyl)-2,3,3a,4,10,10a-hexahydro-1H,7H-dipyrrolo[3,4-b:3′,4′-f][1,4,5]oxathiazocine-8-carboxamide 5,5-dioxide], the EC50 (Hepatitis B virus) is less than 1000 nM.

Take `Cc1nc(C(=O)N2C[C@H]3COc4c(cn(C)c4C(=O)Nc4ccc(F)c(C)c4)S(=O)(=O)N[C@H]3C2)c(C)o1` [Example E114, (3aR,10aR)-2-(2,5-dimethyloxazole-4-carbonyl)-N-(4-fluoro-3-methylphenyl)-7-methyl-2,3,3a,4,10,10a-hexahydro-1H,7H-dipyrrolo[3,4-b:3′,4′-f][1,4,5]oxathiazocine-8-carboxamide 5,5-dioxide]: the concentration giving a half-maximal response (EC50) (Hepatitis B virus) was less than 1000 nM.

For the molecule `Cc1noc(N2C[C@H]3COc4c(cn(C)c4C(=O)Nc4ccc(F)c(C)c4)S(=O)(=O)N[C@H]3C2)n1` [Example E115, (3aR,10aR)—N-(4-fluoro-3-methylphenyl)-7-methyl-2-(3-methyl-1,2,4-oxadiazol-5-yl)-2,3,3a,4,10,10a-hexahydro-1H,7H-dipyrrolo[3,4-b:3′,4′-f][1,4,5]oxathiazocine-8-carboxamide 5,5-dioxide], for the setting “Hepatitis B virus”, the EC50 was less than 1000 nM.

For `Cc1noc(N2C[C@H]3COc4c(cn(C)c4C(=O)Nc4ccc(F)c(Cl)c4)S(=O)(=O)N[C@H]3C2)n1` [Example E116, (3aR,10aR)—N-(3-chloro-4-fluorophenyl)-7-methyl-2-(3-methyl-1,2,4-oxadiazol-5-yl)-2,3,3a,4,10,10a-hexahydro-1H,7H-dipyrrolo[3,4-b:3′,4′-f][1,4,5]oxathiazocine-8-carboxamide 5,5-dioxide], the EC50 (Hepatitis B virus) is less than 1000 nM.

Consider `Cc1noc(N2C[C@H]3COc4c(cn(C)c4C(=O)Nc4cc(F)c(F)c(F)c4)S(=O)(=O)N[C@H]3C2)n1` [Example E117, (3aR,10aR)-7-methyl-2-(3-methyl-1,2,4-oxadiazol-5-yl)-N-(3,4,5-trifluorophenyl)-2,3,3a,4,10,10a-hexahydro-1H,7H-dipyrrolo[3,4-b:3′,4′-f][1,4,5]oxathiazocine-8-carboxamide 5,5-dioxide], for which the EC50 (Hepatitis B virus) is less than 1000 nM.

`Cc1nnc(N2C[C@H]3COc4c(cn(C)c4C(=O)Nc4ccc(F)c(C)c4)S(=O)(=O)N[C@H]3C2)o1` [Example E118, (3aR,10aR)—N-(4-fluoro-3-methylphenyl)-7-methyl-2-(5-methyl-1,3,4-oxadiazol-2-yl)-2,3,3a,4,10,10a-hexahydro-1H,7H-dipyrrolo[3,4-b:3′,4′-f][1,4,5]oxathiazocine-8-carboxamide 5,5-dioxide]: the concentration giving a half-maximal response (EC50) (Hepatitis B virus) is less than 1000 nM.

As for `Cc1nnc(N2C[C@H]3COc4c(cn(C)c4C(=O)Nc4ccc(F)c(Cl)c4)S(=O)(=O)N[C@H]3C2)o1` [Example E119, (3aR,10aR)—N-(3-chloro-4-fluorophenyl)-7-methyl-2-(5-methyl-1,3,4-oxadiazol-2-yl)-2,3,3a,4,10,10a-hexahydro-1H,7H-dipyrrolo[3,4-b:3′,4′-f][1,4,5]oxathiazocine-8-carboxamide 5,5-dioxide], under “Hepatitis B virus”, the EC50 was less than 1000 nM.

As for `Cc1nnc(N2C[C@H]3COc4c(cn(C)c4C(=O)Nc4cc(F)c(F)c(F)c4)S(=O)(=O)N[C@H]3C2)o1` [Example E120, (3aR,10aR)-7-methyl-2-(5-methyl-1,3,4-oxadiazol-2-yl)-N-(3,4,5-trifluorophenyl)-2,3,3a,4,10,10a-hexahydro-1H,7H-dipyrrolo[3,4-b:3′,4′-f][1,4,5]oxathiazocine-8-carboxamide 5,5-dioxide], the EC50 (Hepatitis B virus) is less than 1000 nM.

With `CCOC(=O)N1C[C@H]2CSc3c(cn(C)c3C(=O)Nc3ccc(F)c(C)c3)S(=O)(=O)N[C@H]2C1` [Example E121, Ethyl (3aR,10aR)-8-((4-fluoro-3-methylphenyl)carbamoyl)-7-methyl-3a,4,10,10a-tetrahydro-1H,7H-dipyrrolo[3,4-c:3′,4′-g][1,6,2]dithiazocine-2(3H)-carboxylate 5,5-dioxide], the EC50 (Hepatitis B virus) was less than 1000 nM.

In the case of `CCOC(=O)N1C[C@H]2C[S+]([O-])c3c(cn(C)c3C(=O)Nc3ccc(F)c(C)c3)S(=O)(=O)N[C@H]2C1` (stereo partly drawn) [Example E122, Ethyl (3aR,10aR)-8-((4-fluoro-3-methylphenyl)carbamoyl)-7-methyl-3a,4,10,10a-tetrahydro-1H,7H-dipyrrolo[3,4-c:3′,4′-g][1,6,2]dithiazocine-2(3H)-carboxylate 5,5,9-trioxide], the EC50 (Hepatitis B virus) is less than 1000 nM.

`CCOC(=O)N1C[C@H]2CS(=O)(=O)c3c(cn(C)c3C(=O)Nc3ccc(F)c(C)c3)S(=O)(=O)N[C@H]2C1` [Example E123, Ethyl (3aR,10aR)-8-((4-fluoro-3-methylphenyl)carbamoyl)-7-methyl-3a,4,10,10a-tetrahydro-1H,7H-dipyrrolo[3,4-c:3′,4′-g][1,6,2]dithiazocine-2(3H)-carboxylate 5,5,9,9-tetraoxide]: the EC50 (Hepatitis B virus) was less than 1000 nM.

On to `Cc1nnc(C(=O)N2C[C@H]3CSc4c(cn(C)c4C(=O)Nc4ccc(F)c(C)c4)S(=O)(=O)N[C@H]3C2)o1` [Example E124, (3aR,10aR)—N-(4-fluoro-3-methylphenyl)-7-methyl-2-(5-methyl-1,3,4-oxadiazole-2-carbonyl)-2,3,3a,4,10,10a-hexahydro-1H,7H-dipyrrolo[3,4-c:3′,4′-g][1,6,2]dithiazocine-8-carboxamide 5,5-dioxide], for which the concentration for a half-maximal effect (EC50) (Hepatitis B virus) is less than 1000 nM.

For the molecule `Cc1cc(NC(=O)c2c3c(cn2C)S(=O)(=O)NC2CN(C(=O)OC(C)(C)C)CC2CO3)ccc1F` (stereo not drawn) [Example E145, Trans-Tert-Butyl 8-((4-fluoro-3-methylphenyl)carbamoyl)-7-methyl-3a,4,10,10a-tetrahydro-1H,7H-dipyrrolo[3,4-b:3′,4′-f][1,4,5]oxathiazocine-2(3H)-carboxylate 5,5-dioxide], the EC50 (Hepatitis B virus) was less than 1000 nM.

Regarding `Cc1cc(NC(=O)c2c3c(cn2C)S(=O)(=O)NC2CN(C(=O)c4ncoc4C)CC2CO3)ccc1F` (stereo not drawn) [Example E147, Trans-N-(4-fluoro-3-methylphenyl)-7-methyl-2-(5-methyloxazole-4-carbonyl)-2,3,3a,4,10,10a-hexahydro-1H,7H-dipyrrolo[3,4-b:3′,4′-f][1,4,5]oxathiazocine-8-carboxamide 5,5-dioxide], under “Hepatitis B virus”, the EC50 is less than 1000 nM.

In the case of `Cc1cc(NC(=O)c2c3c(cn2C)S(=O)(=O)NC2CN(C(=O)C4(C)CCCO4)CC2CO3)ccc1F` (stereo not drawn) [Example E148, Trans-N-(4-fluoro-3-methylphenyl)-7-methyl-2-(2-methyltetrahydrofuran-2-carbonyl)-2,3,3a,4,10,10a-hexahydro-1H,7H-dipyrrolo[3,4-b:3′,4′-f][1,4,5]oxathiazocine-8-carboxamide 5,5-dioxide], the EC50 (Hepatitis B virus) was less than 1000 nM.

With `Cc1cc(NC(=O)c2c3c(cn2C)S(=O)(=O)NC2CN(C(=O)C4(C)COC4)CC2CO3)ccc1F` (stereo not drawn) [Example E149, Trans-N-(4-fluoro-3-methylphenyl)-7-methyl-2-(3-methyloxetane-3-carbonyl)-2,3,3a,4,10,10a-hexahydro-1H,7H-dipyrrolo[3,4-b:3′,4′-f][1,4,5]oxathiazocine-8-carboxamide 5,5-dioxide], the 50% effective concentration (EC50) was less than 1000 nM.

Turning to `Cc1cc(NC(=O)c2c3c(cn2C)S(=O)(=O)NC2CN(C(=O)C45CC(CO4)C5)CC2CO3)ccc1F` (stereo not drawn) [Example E150, Trans-2-(2-oxabicyclo[2.1.1]hexane-1-carbonyl)-N-(4-fluoro-3-methylphenyl)-7-methyl-2,3,3a,4,10,10a-hexahydro-1H,7H-dipyrrolo[3,4-b:3′,4′-f][1,4,5]oxathiazocine-8-carboxamide 5,5-dioxide], the 50% effective concentration (EC50) (Hepatitis B virus) is less than 1000 nM.

For the molecule `Cc1cc(NC(=O)c2c3c(cn2C)S(=O)(=O)NC2C(=O)N(Cc4ccccc4)CC2CO3)ccc1F` (stereo not drawn) [Example E155, Cis 2-benzyl-N-(4-fluoro-3-methylphenyl)-7-methyl-3-oxo-2,3,3a,4,10,10a-hexahydro-1H,7H-dipyrrolo[3,4-b:3′,4′-f][1,4,5]oxathiazocine-8-carboxamide 5,5-dioxide], the half-maximal effective concentration (EC50) (Hepatitis B virus) is less than 1000 nM.

For `CCOC(=O)N1CC2CNc3c(cn(C)c3C(=O)Nc3ccc(F)c(C)c3)S(=O)(=O)NC2C1` (stereo not drawn) [Example E157, Cis Ethyl 8-((4-fluoro-3-methylphenyl)carbamoyl)-7-methyl-3a,4,7,9,10,10a-hexahydro-1H-dipyrrolo[3,4-c:3′,4′-g][1,2,6]thiadiazocine-2(3H)-carboxylate 5,5-dioxide], the half-maximal effective concentration (EC50) (Hepatitis B virus) was more than 1000 nM.

Consider “Ethyl 8-((3-chloro-4-fluorophenyl)carbamoyl)-7-methyl-3a,4,10,10a-tetrahydro-1H,7H-dipyrrolo[3,4-b:3′,4′-f][1,4,5]oxathiazocine-2(3H)-carboxylate 5,5-dioxide (3aR,10aR) [Example E41]”, for which the half-maximal effective concentration (EC50) was less than 1000 nM. Besides, the “Anti HBV Activity (conc μM)” value (0.05 μM) is listed as “A (0.05) (HBV inhibition greater than 50% at the concentration indicated in the table)”.

As to “Ethyl 8-((3-chloro-4-fluorophenyl)carbamoyl)-7-methyl-3a,4,10,10a-tetrahydro-1H,7H-dipyrrolo[3,4-b:3′,4′-f][1,4,5]oxathiazocine-2(3H)-carboxylate 5,5-dioxide (3aS,10aS) [Example E42]”, under “0.1 μM”, the “Anti HBV Activity (conc μM)” value is reported as “B (0.1) (HBV inhibition less than 50% at the concentration indicated in the table)”.

For “Ethyl 8-((4-fluoro-3-methylphenyl)carbamoyl)-7-methyl-3a,4,10,10a-tetrahydro-1H,7H-dipyrrolo[3,4-b:3′,4′-f][1,4,5]oxathiazocine-2(3H)-carboxylate 5,5-dioxide (3aS,10aS) [Example E40]”, the “Anti HBV Activity (conc μM)” value (0.1 μM) is “B (0.1) (HBV inhibition less than 50% at the concentration indicated in the table)”.

As for “ethyl 7-methyl-8-((3,4,5-trifluorophenyl)carbamoyl)-3a,4,10,10a-tetrahydro-1H,7H-dipyrrolo[3,4-b:3′,4′-f][1,4,5]oxathiazocine-2(3H)-carboxylate 5,5-dioxide (3aR,10aR) [Example E31]”, the “Anti HBV Activity (conc μM)” value (0.1 μM) is “B (0.1) (HBV inhibition less than 50% at the concentration indicated in the table)”.
